Source: patent US10966951B2, “Compositions and methods for lowering triglycerides in a subject having reduced kidney function” (Amarin Pharmaceuticals Ireland Limited, priority 2017, dated 2021)

How the values were obtained:
Assay type in all cases: in vivo, human
[1] = Essential fatty acid parameters in plasma, 6-week AAMI study (Example 2)
Description: A single-center, 6-week, double-blind, randomized, parallel-group, placebo-controlled, dose-ranging pilot study was performed to evaluate the efficacy, tolerability, and safety of >96% E-EPA in subjects with subjective and objective memory impairment according to generally accepted criteria for Age-Associated Memory Impairment (“AAMI”). The primary objective of the study was to determine the effect of >96% E-EPA 1 g, 2 g, and 4 g daily, compared to placebo, on cognitive performance in subjects with AAMI.
Ninety-four subjects were randomized into one of six groups: 1 g E-EPA daily (n=23), 2 g E-EPA daily (n=24), 4 g E-EPA daily (n=24), 1 g placebo daily (n=7), 2 g placebo daily (n=8), and 4 g placebo daily (n=8). E-EPA was provided as 500 mg soft gel capsules containing >96% E-EPA and 0.2% dl-α-tocopherol as an antioxidant. Placebo capsules contained 467 mg of liquid paraffin and 0.2% dl-α-tocopherol. Ninety-one subjects completed the study. Two subjects in the 2 g E-EPA group and one subject in the 2 g placebo group discontinued the study.
Blood samples (10 mL) were collected at Visit 1 (screening) and at Visits 4, 5, and 6. Analysis was performed by MSR Lipid Analysis, Scottish Crop Research Institute, Dundee, UK. The screening sample acted as baseline for the EFA measurements. Lipid was extracted from plasma, serum, and RBC suspensions and converted into fatty acid methyl esters which were analyzed by gas chromatography to give fatty acid profiles as micrograms fatty acid per gram of sample ([…]) and normalized area percent.
RBC and plasma EFA data were collected at baseline, Day 14, 28, and 42 and summarized by visit for each treatment group. Change from baseline and percent change from baseline were also summarized. ANCOVA comparison of E-EPA dose groups and E-EPA versus placebo was performed.

[2] = tested on: subjects with Age-Associated Memory Impairment; experiment: Safety and tolerability, 6-week AAMI study (Example 2)
Description: Ninety-four subjects were randomized into one of six groups: 1 g E-EPA daily (n=23), 2 g E-EPA daily (n=24), 4 g E-EPA daily (n=24), 1 g placebo daily (n=7), 2 g placebo daily (n=8), and 4 g placebo daily (n=8).
All randomized subjects that received at least 1 dose of study medication were included in the Safety Population.
Safety evaluations were based on the safety population. Safety and tolerability were assessed in terms of AEs, vital signs, 12-lead ECG, clinical laboratory data, medical history, and study drug compliance. Safety and tolerability data were presented by treatment group.

[3] = tested on: patients with chronic kidney disease (eGFR<60 mL/min/1.73 m^2); experiment: Post-hoc ANCHOR analysis, chronic kidney disease: lipid, lipoprotein, oxidation and inflammation parameters (Example 7); details: CKD
Description: CVD-related (e.g., atherogenic) parameters were analyzed in a post-hoc study of 55 patients from the multi-center, placebo-controlled, randomized double-blind, 12-week study described in Example 1. These 55 patients have chronic kidney disease (e.g., eGFR<60 mL/min/1.73 m^2 for ≥3 months). There was no lower limit of eGFR specified.
19 patients were randomized to E-EPA and 36 patients were randomized to placebo. One patient in each group discontinued and was excluded from efficacy analyses (but not safety analyses). EPA levels in plasma and RBC were measured in 23 of the 55 patients. These measurements were taken on 7 of the patients randomized to E-EPA and on 16 of the patients that were randomized to the placebo.
The primary objective of this post-hoc study, which is based on an intention to treat, was to determine if and how 4 g daily of >96% E-EPA affects patients with stage 3 chronic kidney disease (e.g., eGFR<60 mL/min/1.73 m^2 for ≥3 months). The secondary objective was to determine if and how 4 g daily of >96% E-EPA, compared to a placebo, affected CVD-related parameters in patients with a high risk of CVD and fasting TG levels ≥[…] and <500 mg/dL, despite LDL-C goal on statin therapy. These CVD-parameters include lipid levels, lipoprotein levels, and inflammatory markers, such as TC, LDL-C, HDL-C, vLDL-C, vLDL-TG, RLP-C, non-HDL-C, Apo B, Apo C-III, Lp-PLA, hsCRP, and ox-LDL, and in plasma and RBC EPA concentration. CVD-parameters were analyzed for median difference in percent change from baseline to week 12 in subjects receiving 4 g/day of E-EPA and those receiving the placebo.
The median difference in percent change from baseline between 4 g/day of E-EPA and placebo for the primary efficacy variable and additional assessments were estimated using the Hodges-Lehmann method (P values from the Wilcoxon rank-sum test for treatment comparisons). Using the Hodges-Lehmann method, departures from normal distribution were observed; for normally distributed parameters, an analysis of covariance model was used with least squares (LS) means and standard errors (SE). Missing values were imputed using the last-observation-carried-forward method. For all post hoc analyses, the alpha for statistical significance was 0.05.

Structure (SMILES): CC/C=C\C/C=C\C/C=C\C/C=C\C/C=C\CCCC(=O)OCC [E-EPA, ethyl eicosapentaenoate]
- EPA, DPAn-3, and EPA/AA ratio values from baseline to Day 42 ([1]; plasma and RBC, 1, 2, and 4 g treatment groups): increased substantially
- AA Mean change from Baseline, Mean (SD) ([1]; plasma, 1 g daily, Day 14): −9.7 (22.20) μg/g
- DHA Mean change from Baseline, Mean (SD) ([1]; plasma, 1 g daily, Day 14): −6.4 (13.30) μg/g
- EPA/AA Mean change from Baseline, Mean (SD) ([1]; plasma, 1 g daily, Day 14): 0.3 (0.4)
- DHA Mean change from Baseline, Mean (SD) ([1]; plasma, 1 g daily, Day 28): −6.6 (15.53) μg/g
- EPA/AA Mean change from Baseline, Mean (SD) ([1]; plasma, 1 g daily, Day 28): 0.3 (0.20)
- AA Mean change from Baseline, Mean (SD) ([1]; plasma, 1 g daily, Day 42): −8.7 (31.35) μg/g
- DGLA Mean change from Baseline, Mean (SD) ([1]; plasma, 1 g daily, Day 42): −9.4 (9.41) μg/g
- DHA Mean change from Baseline, Mean (SD) ([1]; plasma, 1 g daily, Day 42): −5.4 (18.17) μg/g
- EPA/AA Mean change from Baseline, Mean (SD) ([1]; plasma, 1 g daily, Day 42): 0.3 (0.24)
- EPA/AA Baseline Mean (SD) ([1]; plasma, 1 g daily): 0.2 (0.14)
- AA LS Mean, 1 g versus 4 g ([1]; plasma, 1 g versus 4 g): 4.2 µg/g
- DGLA LS Mean, 1 g versus 4 g ([1]; plasma, 1 g versus 4 g): 3.7 µg/g
- DHA LS Mean, 1 g versus 4 g ([1]; plasma, 1 g versus 4 g): -0.8 µg/g
- EPA/AA LS Mean, 1 g versus 4 g ([1]; plasma, 1 g versus 4 g): −0.66
- DHA Mean change from Baseline, Mean (SD) ([1]; plasma, 2 g daily, Day 14): −5.4 (14.29) μg/g
- EPA/AA Mean change from Baseline, Mean (SD) ([1]; plasma, 2 g daily, Day 14): 0.6 (0.23)
- DHA Mean change from Baseline, Mean (SD) ([1]; plasma, 2 g daily, Day 28): −8.1 (15.82) μg/g
- EPA/AA Mean change from Baseline, Mean (SD) ([1]; plasma, 2 g daily, Day 28): 0.8 (0.35)
- DHA Mean change from Baseline, Mean (SD) ([1]; plasma, 2 g daily, Day 42): −6.0 (16.69) μg/g
- EPA/AA Mean change from Baseline, Mean (SD) ([1]; plasma, 2 g daily, Day 42): 0.7 (0.29)
- EPA/AA Baseline Mean (SD) ([1]; plasma, 2 g daily): 0.2 (0.12)
- DGLA LS Mean, 2 g versus 4 g ([1]; plasma, 2 g versus 4 g): 2.5 µg/g
- DHA LS Mean, 2 g versus 4 g ([1]; plasma, 2 g versus 4 g): 1.5 µg/g
- EPA/AA LS Mean, 2 g versus 4 g ([1]; plasma, 2 g versus 4 g): −0.41
- EPA/AA Mean change from Baseline, Mean (SD) ([1]; plasma, 4 g daily, Day 14): 1.1 (0.28)
- EPA/AA Mean change from Baseline, Mean (SD) ([1]; plasma, 4 g daily, Day 28): 1.3 (0.42)
- EPA/AA Mean change from Baseline, Mean (SD) ([1]; plasma, 4 g daily, Day 42): 1.3 (0.45)
- EPA/AA Baseline Mean (SD) ([1]; plasma, 4 g daily): 0.2 (0.07)
- subjects with nausea Possibly Related to the study drug ([2]; 1 g cohort): two
- nausea Probably Related to the study drug ([2]; 1 g, one subject): experienced nausea that was Probably Related to the study drug
- subjects with nausea Possibly Related to the study drug ([2]; 2 g cohort): one
- SAE reported ([2]; 2 g treatment group): One SAE
- subjects discontinued due to TEAEs ([2]; 2 g treatment group): 2 subjects
- relatedness of the SAE (worsening epigastric chest pain) ([2]; 2 g, one subject): unrelated to the study drug
- subjects with nausea Possibly Related to the study drug ([2]; 4 g cohort): two
- diarrhea Probably Related to the study drug ([2]; 4 g, one subject): experienced diarrhea that was Probably Related to the study drug
- TEAEs Definitely Related to the study drug ([2]; all groups): No TEAEs were Definitely Related
- VLDL-C Median Difference in % Change From Baseline vs Placebo ([3]; 4 g/day vs placebo, week 12): −26.7%
- hsCRP Median Difference in % Change From Baseline vs Placebo ([3]; 4 g/day vs placebo, week 12, listed as Icosapent Ethyl): −25.0%
- Apo B Baseline ([3]; 4 g/day, baseline): 87.0 mg/dL
- HDL-C Baseline ([3]; 4 g/day, baseline): 35.0 mg/dL
- LDL-C Baseline ([3]; 4 g/day, baseline): 76.0 mg/dL
- VLDL-C Baseline ([3]; 4 g/day, baseline): 42.0 mg/dL
- hsCRP Baseline ([3]; 4 g/day, baseline): 1.9 mg/L
- RLP-C Baseline ([3]; 4 g/day, baseline, n = 9): 17.0 mg/dL
- Apo B Change From Baseline, % ([3]; 4 g/day, week 12): −7.2%
- Apo B End of Treatment ([3]; 4 g/day, week 12): 83.0 mg/dL
- Apo C-III Change From Baseline, % ([3]; 4 g/day, week 12): −7.3%
- HDL-C Change From Baseline, % ([3]; 4 g/day, week 12): 0.9%
- LDL-C Change From Baseline, % ([3]; 4 g/day, week 12): −6.5%
- Lp-PLA2 End of Treatment ([3]; 4 g/day, week 12): 150.0 ng/mL
- Non-HDL-C Change From Baseline, % ([3]; 4 g/day, week 12): −6.4%
- Ox-LDL Change From Baseline, % ([3]; 4 g/day, week 12): −9.5%
- RLP-C End of Treatment ([3]; 4 g/day, week 12): 10.0 mg/dL
- TC Change From Baseline, % ([3]; 4 g/day, week 12): −8.1%
- hsCRP Change From Baseline, % ([3]; 4 g/day, week 12): −16.9%
- hsCRP End of Treatment ([3]; 4 g/day, week 12): 2.1 mg/L
